The text below walks through data of patent US8563609B2, “Nitro fatty acids - neuroprotection and/or inhibition of cognitive decline” (Nitromega Corp., priority 2010, dated 2013).

The conditions of data set [1]: 900 mgs per day oral, six months; cited from earlier work.
Data set [2] deals with Abeta-mediated changes in membrane trafficking. The data set is described as follows: exocytosis (formazan membrane trafficking) assay with Abeta oligomers in mature primary neuronal cultures. The class given is cell-based, rat. Particulars: for amyloid beta (Abeta) in intracellular vesicles (figure legend): exocytosis assay, mature primary neuronal cultures grown for 3 weeks in vitro. The text has this: Abeta oligomer preparations: Human amyloid peptide 1-42 was obtained from a variety of commercial sources, with lot-choice contingent upon quality control analysis. Abeta 1-42 oligomers made according to published methods or isolated from human brain tissue served as positive controls. Toxicity was monitored in each image-based assay via quantification of nuclear morphology visualized with the DNA binding dye DAPI. Nuclei that were fragmented were considered to be in late stage apoptosis. Peptide lots producing unusual peptide size ranges or significant toxicity at standard concentrations on neurons were rejected.
Image Processing: Images are captured and analyzed with the Cellomics VTI automated microscope platform. For statistical analysis, a Tukey-Kramer pair-wise comparison with unequal variance is used.
A primary neuron-based functional screening assay to detect small molecule Abeta oligomer blockers: Primary rat neurons grown for at least 3 weeks in vitro were chosen as the basis for this screening assay. […] More complex systems such as acute or organotypic brain slices are very useful but not amenable to high throughput screening. […] For this reason, primary neuronal cultures were chosen because of their ability to be used in high throughput screens and fidelity to what occurs in vivo.
Measuring membrane trafficking rate changes induced by oligomers via formazan morphological shifts has been used in cell lines to discover Abeta oligomer-blocking drugs.
Yellow tetrazolium salts are endocytosed by cells and reduced to insoluble purple formazan in the endosomal pathway. The level of purple formazan is a reflection of the number of actively metabolizing cells in culture, and reduction in the amount of formazan was taken as a measure of cell death or metabolic toxicity in culture as well as an indicator of membrane trafficking
The exocytosis assay was adapted for use with mature primary neuronal cultures grown for 3 weeks in vitro.

Another data set relates to motor neurons. The data set is described as follows: motor neuron astrocyte coculture, in vitro model of ALS (SOD G93A astrocytes). It counts as cell-based, mice. As to the method: Recent studies have shown that nitro-arachidonic acid can have protective effects compared with native arachidonic acid in an in vitro model of ALS. This model is based on astrocyte-induced motoneuron toxicity induced by a mutation in CuZn SOD (SOD1).
Briefly, motor neuron astrocytes cocultures were made.
FIG. 2 illustrates the results of these experiments. Native arachidonic acid (AA) at 3 μM and 5 μM had no effect on the motor neuron survival compared with control.

The mark [3] stands for this setting: primary neuronal cultures grown for 3 weeks in vitro, Abeta oligomers.

In the case of `CC/C=C\C/C=C\C/C=C\C/C=C\C/C=C\C/C=C\CCC(=O)O` [DHA, docosahexaenoic acid], in data set [1], the tolerability result is on record as “well-tolerated”.
As to `C[C@]12N[C@H](Cc3ccccc31)c1ccccc12` [MK-801], the “block of Abeta oligomer effects on membrane trafficking (active / not active)” value (shortened to “block … (active / not active)”) in data set [2] (setting [3]) was “none were active”.
For `CCCCC/C=C\C/C=C\C/C=C\C/C=C\CCCC(=O)O` [arachidonic acid], the “motor neuron survival compared with control / mutant astrocyte induced motor neuron death” value in the data set with motor neurons (3 μM) and in the data set with motor neurons (5 μM) was “no effect” throughout.
Take `C[N+](C)(C)CCCCCC[N+](C)(C)C` [hexamethonium bromide]: the “block … (active / not active)” value in data set [2] (setting [3]) is listed as “none were active”.
In the case of `CCCCCCCC/C=C\CCCCCCCC(=O)O` [oleic acid], the 50% effective concentration (EC50) (usually the concentration giving half of the maximal effect) in data set [2] (Rattus norvegicus, 504 h, primary neuronal cultures grown for 3 weeks in vitro, Abeta oligomers, read-out: EC50, inhibition of oligomer effects on membrane trafficking) turned out to be 2080 nM. Besides, the “amyloid beta (Abeta) in intracellular vesicles (figure legend)” value in data set [2] is given as “dose-dependent decrease”.
As to `O[C@H]1[C@H](O)[C@@H](O)[C@H](O)[C@@H](O)[C@@H]1O` [scyllo-inositol], the “block … (active / not active)” value in data set [2] (setting [3]) is on record as “none were active”.
Take Nitro-oleic acid: the “amyloid beta (Abeta) in intracellular vesicles (figure legend)” value in data set [2] is on record as “dose-dependent decrease”. Further, the “block … (active / not active)” value in data set [2] (setting [3]) is given as “little statistically relevant effect on membrane trafficking”.
On to nitro-arachidonic acid, for which the “motor neuron survival compared with control / mutant astrocyte induced motor neuron death” value in the data set on motor neurons (3 μM) and with motor neurons (5 μM) was “inhibited mutant astrocyte induced motor neuron death” in each case. In addition, in the data set with motor neurons (incubated for 24 hours with wild type motor neurons), the “motorneuron death caused by co-culture with astrocytes containing a mutation in SOD1 (SOD G93A)” value is “limited motorneuron death”.
